Molecules are shown by their SMILES. pEC50: −log10 of the molar value. Starred links: 1 amine or outer side, 2 acyl side, 3 side chain; linkers in the order of their positions; H or OH if unused. Positions of bridges follow the written chain, without caps; N, C: chain ends. Non-standard residues stand in square brackets, D forms with d. Residues, ends and D or L forms follow the SMILES beside them. *: point of attachment. Ahppa(3S,4S) = O=C(C[C@H](O)[C@H](Cc1ccccc1)N[*:1])[*:2]; Oic = O=C(O)[C@@H]1C[C@@H]2CCCC[C@@H]2N1; X9 = NC(=O)C[C@H](O)[C@H](Cc1ccccc1)N*; X3 = O=C(C(c1cccc(F)c1)N1CCNCC1)*; X6 = O=C(C(c1ccc(F)cc1)N1CCNCC1)*; Tic = O=C(O)[C@@H]1Cc2ccccc2CN1; X8 = O=C(C(c1ccccc1F)N1CCNCC1)*; dTic = O=C(O)[C@H]1Cc2ccccc2CN1; X2 = O=C(C(c1ccccc1)N1CCNCC1)*; Nphe = O=C(O)CNCc1ccccc1 Bounds are passed on as bounds.

One test deals with T1, human QRFPR (hQRFPR) (Homo sapiens, UniProt Q96P65).
T1 construct: expressed in transfected cells; host or cells: CHO cells, stably transfected with hQRFPR (G418 selection) and Gα16 (hygromycin B selection)
T1 sequence (Q96P65 1-431): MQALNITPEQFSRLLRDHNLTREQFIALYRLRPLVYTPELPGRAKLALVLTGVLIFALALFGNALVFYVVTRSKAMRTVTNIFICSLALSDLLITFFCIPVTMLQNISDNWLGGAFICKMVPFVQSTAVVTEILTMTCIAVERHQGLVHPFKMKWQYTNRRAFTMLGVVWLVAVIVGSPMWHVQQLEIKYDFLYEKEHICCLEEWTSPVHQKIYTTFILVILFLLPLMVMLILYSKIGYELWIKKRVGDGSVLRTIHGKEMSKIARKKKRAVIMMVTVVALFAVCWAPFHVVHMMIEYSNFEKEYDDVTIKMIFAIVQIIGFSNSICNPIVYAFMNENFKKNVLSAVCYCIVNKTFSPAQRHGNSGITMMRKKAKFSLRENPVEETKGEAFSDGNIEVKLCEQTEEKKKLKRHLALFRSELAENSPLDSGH
Description: Calcium mobilization assay, agonist mode ([Ca2+]i in Gα16-hQRFPR-transfected CHO cells). The settings on record: [Ca2+]i mobilization in Gα16-hQRFPR-transfected CHO cells; mean of at least three independent experiments performed in triplicate; read-out: EC50. It counts as cell-based. The method, then: Stably transfected hQRFPR CHO cells were obtained as previously described. The cells were maintained in F-12 nutrient mixture (Ham-F12) medium supplemented with 10% fetal bovine serum, 2 mM glutamine, and penicillin-streptomycin. Expression of Gα16 cells was maintained using selection antibiotic hygromycin B (200 µg/mL) and that of hQRFPR using geneticin G418 (500 µg/mL) (Life Technologies, Villebon-Sur-Yvette, France) in a humidified 5% CO2 atmosphere at 37 °C.
Changes in intracellular Ca^2+ concentrations induced by 26RFa(20–26) analogs in CHO-Gα16-hQRFPR-transfected cells were measured on a benchtop scanning fluorometer Flexstation III (Molecular Devices, Sunnyvale, CA, USA) as previously described. Briefly, 96-well assay black plates with clear bottoms (Corning international, Avon, France) were seeded at a density of 40,000 cells/well 24 h prior to assay. For profiling agonistic experiments, cells were loaded with 2 µM Fluo-4 acetoxymethyl ester (AM) (Invitrogen) for 1 h in the presence of 0.01% pluronic acid, washed thrice, and incubated for 30 min with standard HBSS containing 2.5 mM probenecid and 5 mM HEPES. Compounds to be tested were added at final concentrations ranging from 10^−11 to 10^−5 M in HBSS, and the fluorescence intensity was measured during 3 min. To evaluate the antagonistic potency of the test compounds, cells were incubated with each compound over 15 min after Fluo-4 AM loading. Then, during fluorescence recording, a pulse of 26RFa was administered at a final concentration of 10^−7 M. After subtraction of the mean fluorescence background, the baseline was normalized to 100%. Fluorescence peak values were determined for each concentration of compound.
Calcium experiments were performed in triplicate, and data, expressed as mean ± SEM of at least three distinct experiments, were analyzed with the Prism 8.0 software (Graphpad Software, San Diego, CA, USA). EC50 and the IC50 values were determined from concentration–response curves using a sigmoidal dose–response fit with variable slope from at least three independent determinations. Differences between 26RFa(20–26) and analog activities were analyzed by the Mann–Whitney test. p values < 0.05 were considered significant.
A general note: Calcium assays in cells follow changes in intracellular calcium, usually with a dye or a luminescent sensor.
In the case of `N=C(N)NCCC[C@H](NC(=O)[C@H](Cc1ccccc1)NC(=O)[C@H](CO)NC(=O)[C@H](Cc1ccccc1)NC(=O)CNC(=O)CN)C(=O)N1Cc2ccccc2C[C@H]1C(N)=O` [Compound 30, [Tic^26]26RFa(20–26)] (H-GGFSFR[Tic]-NH2), the pEC50 is 5.11.
Turning to `N=C(N)NCCC[C@H](NC(=O)[C@H](Cc1ccccc1)NC(=O)[C@H](CO)NC(=O)CN(Cc1ccccc1)C(=O)CNC(=O)CN)C(=O)N[C@@H](Cc1ccccc1)C(N)=O` [Compound 31, [NPhe^22]26RFa(20–26)] (H-GG[Nphe]SFRF-NH2), the pEC50 was 6.24.
In the case of `N=C(N)NCCC[C@H](NC(=O)CN(Cc1ccccc1)C(=O)[C@H](CO)NC(=O)[C@H](Cc1ccccc1)NC(=O)CNC(=O)CN)C(=O)N[C@@H](Cc1ccccc1)C(N)=O` [Compound 32, [NPhe^24]26RFa(20–26)] (H-GGFS[Nphe]RF-NH2), the pEC50 was below 5.00.
The same measure, in the same setting: the result for `N=C(N)NCCC[C@H](NC(=O)[C@H](Cc1ccccc1)NC(=O)[C@H](CO)NC(=O)[C@H](Cc1ccccc1)NC(=O)CNC(=O)CN)C(=O)N(CC(N)=O)Cc1ccccc1` [Compound 33, [NPhe^26]26RFa(20–26)] (H-GGFSFR[Nphe]-NH2) reads below 5.00; that for `N=C(N)NCCC[C@H](NC(=O)[C@H](Cc1ccccc1)NC(=O)[C@H](CO)NC(=O)C[C@H](O)[C@H](Cc1ccccc1)NC(=O)CNC(=O)CN)C(=O)N[C@@H](Cc1ccccc1)C(N)=O` [Compound 34, [AHPPA^22]26RFa(20–26)] (H-GG[Ahppa(3S,4S)]SFRF-NH2), 5.55; that for `N=C(N)NCCC[C@H](NC(=O)C[C@H](O)[C@H](Cc1ccccc1)NC(=O)[C@H](CO)NC(=O)[C@H](Cc1ccccc1)NC(=O)CNC(=O)CN)C(=O)N[C@@H](Cc1ccccc1)C(N)=O` [Compound 35, [AHPPA^24]26RFa(20–26)] (H-GGFS[Ahppa(3S,4S)]RF-NH2), below 5.00.
`N=C(N)NCCC[C@H](NC(=O)[C@H](Cc1ccccc1)NC(=O)[C@H](CO)NC(=O)[C@H](Cc1ccccc1)NC(=O)CNC(=O)CN)C(=O)N[C@@H](Cc1ccccc1)[C@@H](O)CC(N)=O` [Compound 36, [AHPPA^26]26RFa(20–26)] (H-GGFSFR-X9): the negative-log EC50 (pEC50) was below 5.00.
For the compound `N=C(N)NCCC[C@H](NC(=O)[C@H](Cc1ccccc1)NC(=O)[C@H](CO)NC(=O)[C@@H](Cc1c[nH]c2ccccc12)NC(=O)CNC(=O)CN)C(=O)N[C@@H](Cc1ccccc1)C(N)=O` [Compound 37, [DTrp^22]26RFa(20–26)] (H-GG[dW]SFRF-NH2), the negative logarithm of the EC50 (pEC50) was 5.21.
For the compound `N=C(N)NCCC[C@H](NC(=O)[C@@H](Cc1c[nH]c2ccccc12)NC(=O)[C@H](CO)NC(=O)[C@H](Cc1ccccc1)NC(=O)CNC(=O)CN)C(=O)N[C@@H](Cc1ccccc1)C(N)=O` [Compound 38, [DTrp^24]26RFa(20–26)] (H-GGFS[dW]RF-NH2), the negative logarithm of the EC50 (pEC50) is below 5.00.
Turning to `N=C(N)NCCC[C@H](NC(=O)[C@H](Cc1ccccc1)NC(=O)[C@H](CO)NC(=O)[C@H]1Cc2ccccc2CN1C(=O)CNC(=O)CN)C(=O)N[C@@H](Cc1ccccc1)C(N)=O` [Compound 40, [DTic^22]26RFa(20–26)] (H-GG[dTic]SFRF-NH2), the pEC50 was 5.30.
Same read-out and setting: to `N=C(N)NCCC[C@H](NC(=O)[C@H]1Cc2ccccc2CN1C(=O)[C@H](CO)NC(=O)[C@H](Cc1ccccc1)NC(=O)CNC(=O)CN)C(=O)N[C@@H](Cc1ccccc1)C(N)=O` [Compound 41, [DTic^24]26RFa(20–26)] (H-GGFS[dTic]RF-NH2) belongs 5.21; to `N=C(N)NCCC[C@H](NC(=O)[C@H](Cc1ccccc1)NC(=O)[C@H](CO)NC(=O)[C@H](Cc1ccccc1)NC(=O)CNC(=O)CN)C(=O)N1Cc2ccccc2C[C@@H]1C(N)=O` [Compound 42, [DTic^26]26RFa(20–26)] (H-GGFSFR[dTic]-NH2), below 5.00; to `N=C(N)NCCC[C@H](NC(=O)[C@H](Cc1ccccc1)NC(=O)[C@H](CO)NC(=O)[C@@H]1C[C@@H]2CCCC[C@@H]2N1C(=O)CNC(=O)CN)C(=O)N[C@@H](Cc1ccccc1)C(N)=O` [Compound 43, [Oic^22]26RFa(20–26)] (H-GG[Oic]SFRF-NH2), below 5.00.
Same read-out and setting: to `N=C(N)NCCC[C@H](NC(=O)[C@@H]1C[C@@H]2CCCC[C@@H]2N1C(=O)[C@H](CO)NC(=O)[C@H](Cc1ccccc1)NC(=O)CNC(=O)CN)C(=O)N[C@@H](Cc1ccccc1)C(N)=O` [Compound 44, [Oic^24]26RFa(20–26)] (H-GGFS[Oic]RF-NH2) belongs below 5.00; to `N=C(N)NCCC[C@H](NC(=O)[C@H](Cc1ccccc1)NC(=O)[C@H](CO)NC(=O)[C@H](Cc1ccccc1)NC(=O)CNC(=O)CN)C(=O)N1[C@H](C(N)=O)C[C@@H]2CCCC[C@@H]21` [Compound 45, [Oic^26]26RFa(20–26)] (H-GGFSFR[Oic]-NH2), below 5.00.
As for `N=C(N)NCCC[C@H](NC(=O)[C@@H]1CSSC[C@H](NC(=O)CNC(=O)CN)C(=O)N[C@@H](CO)C(=O)N1)C(=O)N[C@@H](Cc1ccccc1)C(N)=O` [Compound 46, [Cys^22,24]26RFa(20–26)] (H-GGCSCRF-NH2; disulfide 3-5), the negative-log EC50 (pEC50) was below 5.00.
In the case of `N=C(N)NCCC[C@@H]1NC(=O)[C@H](Cc2ccccc2)NC(=O)[C@H](CO)NC(=O)[C@@H](NC(=O)CNC(=O)CN)CSSC[C@@H](C(N)=O)NC1=O` [Compound 47, [Cys^22,26]26RFa(20–26)] (H-GGCSFRC-NH2; disulfide 3-7), the negative logarithm of the EC50 (pEC50) is below 5.00.
As to `N=C(N)NCCC[C@@H]1NC(=O)[C@@H](NC(=O)[C@H](CO)NC(=O)[C@H](Cc2ccccc2)NC(=O)CNC(=O)CN)CSSC[C@@H](C(N)=O)NC1=O` [Compound 48, [Cys^24,26]26RFa(20–26)] (H-GGFSCRC-NH2; disulfide 5-7), the pEC50 is below 5.00.
The same measure, in the same setting: to `N=C(N)NCCC[C@H](NC(=O)[C@H](Cc1ccccc1)NC(=O)[C@H](CO)NC(=O)C(c1ccccc1)N1CCNCC1)C(=O)N[C@@H](Cc1ccccc1)C(N)=O` (some centres unmarked) [Compound 49, [Cmpi(Phg)^22]26RFa(22–26)] (X2-SFRF-NH2) belongs below 5.00; to `N=C(N)NCCC[C@H](NC(=O)[C@H](Cc1ccccc1)NC(=O)[C@H](CO)NC(=O)C(c1ccccc1)N1CCNCC1)C(=O)N[C@@H](Cc1ccccc1)C(N)=O` (some centres unmarked) [Compound 50, [Cmpi(Phg)^22]26RFa(22–26)] (X2-SFRF-NH2), below 5.00.
`N=C(N)NCCC[C@H](NC(=O)[C@H](Cc1ccccc1)NC(=O)[C@H](CO)NC(=O)C(c1ccc(F)cc1)N1CCNCC1)C(=O)N[C@@H](Cc1ccccc1)C(N)=O` (some centres unmarked) [Compound 51, [Cmpi(4-FPhg)^22]26RFa(22–26)] (X6-SFRF-NH2): the pEC50 is 5.39.
`N=C(N)NCCC[C@H](NC(=O)[C@H](Cc1ccccc1)NC(=O)[C@H](CO)NC(=O)C(c1ccc(F)cc1)N1CCNCC1)C(=O)N[C@@H](Cc1ccccc1)C(N)=O` (some centres unmarked) [Compound 52, [Cmpi(4-FPhg)^22]26RFa(22–26)] (X6-SFRF-NH2): the pEC50 was 5.78.
On to `N=C(N)NCCC[C@H](NC(=O)[C@H](Cc1ccccc1)NC(=O)[C@H](CO)NC(=O)C(c1cccc(F)c1)N1CCNCC1)C(=O)N[C@@H](Cc1ccccc1)C(N)=O` (some centres unmarked) [Compound 53, [Cmpi(3-FPhg)^22]26RFa(22–26)] (X3-SFRF-NH2), for which the pEC50 was 5.45.
Turning to `N=C(N)NCCC[C@H](NC(=O)[C@H](Cc1ccccc1)NC(=O)[C@H](CO)NC(=O)C(c1cccc(F)c1)N1CCNCC1)C(=O)N[C@@H](Cc1ccccc1)C(N)=O` (some centres unmarked) [Compound 54, [Cmpi(3-FPhg)^22]26RFa(22–26)] (X3-SFRF-NH2), the pEC50 is 5.57.
Same read-out and setting: to `N=C(N)NCCC[C@H](NC(=O)[C@H](Cc1ccccc1)NC(=O)[C@H](CO)NC(=O)C(c1ccccc1F)N1CCNCC1)C(=O)N[C@@H](Cc1ccccc1)C(N)=O` (some centres unmarked) [Compound 55, [Cmpi(2-FPhg)^22]26RFa(22–26)] (X8-SFRF-NH2; N-terminus assumed) belongs 5.61.

Staying with this test, now noted: single prototype curve, triplicate; basal [Ca2+]i mobilization; read-out: EC50 calculated from representative dose–response curves (Figure 3).
In the case of `N=C(N)NCCC[C@H](NC(=O)[C@H](Cc1ccccc1)NC(=O)[C@H](CO)NC(=O)CN(Cc1ccccc1)C(=O)CNC(=O)CN)C(=O)N[C@@H](Cc1ccccc1)C(N)=O` [Compound 31, [NPhe^22]26RFa(20–26)] (H-GG[Nphe]SFRF-NH2), the negative logarithm of the EC50 (pEC50) is 6.83.

The term pEC50 denotes the EC50 on a negative log10 scale, so that one unit is a factor of ten.

These data come from article PMC8307317, “Point-Substitution of Phenylalanine Residues of 26RFa Neuropeptide: A Structure-Activity Relationship Study” (Molecules, 2021).
